Measured values: patent publication US20250120952A1, “17-Beta-Hydroxysteroid Dehydrogenase Type 13 Inhibitors And Methods Of Use Thereof” (ENANTA PHARMACEUTICALS, INC., priority 2023, published 2025)

Experiments:
HSD17B13 = molecular target: T1, HSD17B13 (Homo sapiens, UniProt Q7Z5P4); test: HSD17B13 enzymatic activity in H441 cells (estradiol conversion to estrone, rapid fire mass spectrometry); assay type: cell-based; settings: H441 (high HSD17B13), inhibitor 0.3 uM, 1 uM, 3 uM, 24 hours; effect only in H441, not in A549 (low HSD17B13) (FIG. 10)
T1 construct: Human lung cancer cell lines with high (H441) or low (A549) expression of HSD17B13, as confirmed by western blot; host or cells: H441 human lung cancer cell line
T1 sequence (Q7Z5P4 20-300): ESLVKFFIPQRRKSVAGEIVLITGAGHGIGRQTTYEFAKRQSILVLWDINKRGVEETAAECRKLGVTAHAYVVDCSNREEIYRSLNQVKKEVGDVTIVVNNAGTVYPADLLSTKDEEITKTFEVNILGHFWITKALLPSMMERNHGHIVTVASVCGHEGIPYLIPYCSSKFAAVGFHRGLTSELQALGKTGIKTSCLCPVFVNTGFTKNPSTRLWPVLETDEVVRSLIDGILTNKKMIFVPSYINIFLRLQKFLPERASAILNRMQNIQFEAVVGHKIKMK
Protocol: (§1) Human lung cancer cell lines with high (H441) or low (A549) expression of HSD17B13, as confirmed by western blot, were acquired from ATCC and maintained according to manufacturer's instructions. Cells were seeded at a confluency of 2e5 cells/well (A549) or 4e5 cells/well (H441) in a 6-well format. Once cells were 70% confluent, media was removed and replenished with starvation media for 24 hours. Afterward starvation media was removed and replenished with treatment media for 24 hours. Compound 348 and Compound 812 were used as HSD17B13 inhibitors. For gene expression analysis, treatment media consisted of +/−TGFB1 (10 ng/mL) and +/−HSD17B13 inhibitor (3 uM). For HSD17B13 enzymatic activity, treatment media consisted of +/−d2-Estradiol (Cayman Chemicals) and +/−HSD17B13 inhibitor (0.3 uM, 1 uM, 3 uM); supernatants were collected to measure estradiol conversion to estrone by rapid fire mass spectrometry.

H441 cells = test: Collagen / COL1A1 mRNA in H441 cells; assay type: cell-based, human; settings: H441 (high HSD17B13), +/-TGFB1 10 ng/mL, inhibitor 3 uM, 24 hours; effect only in H441, not in A549 (low HSD17B13) (FIG. 11)
Protocol: as §1

enzymatic activity (d2-estradiol conversion to estrone) (HSD17B13): decreased
SMILES: COc1cc(C(=O)O)ccc1NS(=O)(=O)c1csc(-c2ccc(C3CCC(C(F)(F)F)CC3)cc2)n1 (centres unmarked) [Compound 348]
COL1A1 (Collagen) (H441 cells): decreased
